Reference: patent US20070154534A1, “Use of secretin in the treatment of schizophrenia” (priority 2003, published 2007)
Marks after values point to notes of the source that are not given here. Ends that are not written are not given here.

Key:
[1] = clinical units (CU); 0.2 mcg = 1 CU; cited from earlier work
[2] = test system: patients with refractory schizophrenia; experiment: Double-blind placebo-controlled pilot study of a single intravenous dose of porcine secretin, rated with PANSS and CGI; type: in vivo, human; conditions: for PANSS negative: baseline 25.5; for PANSS positive: baseline 27; for PANSS general: baseline 48.7; for PANSS total: baseline 101.2
Protocol: A pilot study of secretin for treatment of refractory schizophrenia was performed. Twenty-two patients were randomized to a single intravenous dose of porcine secretin or placebo. Patients were evaluated with the Positive and Negative Symptom Scale for Schizophrenia (PANSS) and the Clinical Global Impression Scale (CGI) at baseline, two days after secretin infusion and weekly for four weeks. Several patients treated with secretin experienced clinically meaningful, though transient when given a single dose, reductions in symptoms and a greater percentage of patients treated with secretin were rated as improved with the CGI.
All subjects were inpatients at Dorothea Dix Hospital in Raleigh, N.C. United States of America. The protocol was approved by the University of North Carolina at Chapel Hill Committee for the Protection of the Rights of Research Subjects. Subjects or their guardians provided written informed consent. Patients met the following inclusion criteria: (1) age 18-60; (2) DSM-IV diagnosis of schizophrenia or schizoaffective disorder; (3) severe residual symptoms despite at least three adequate trials of anti-psychotic drugs, including at least one atypical drug. Residual symptoms were defined as active delusions, hallucinations, or thought disorder, accompanied by unemployment and lack of significant social relationships outside the family of origin; (4) a baseline PANSS score of at least 70; (5) no changes in psychotropic medications for 4 weeks prior to study entry.
Subjects were assessed at baseline, two days post-infusion, and weekly for four subsequent weeks, with the Clinical Global Impression Scale (CGI) and the Positive and Negative Symptom Scale for Schizophrenia (PANSS). All raters achieved inter-rater reliability of at least 0.90 for the PANSS, and each subject had the same rater for each assessment. Qualitative impressions were also collected from clinical staff during the course of the trial.

[3] = test system: patients with refractory schizophrenia; conditions: in vivo, iv
Protocol: Twenty-two subjects were enrolled in the protocol and were randomly assigned to receive one dose of intravenous porcine secretin (SECRETIN-FERRING™, Ferring Laboratories, Inc., Suffern, N.Y., United States of America) or normal saline under double-blind conditions. The protocol allowed for only one infusion of secretin regardless of response. The first seven subjects received either 75 CU of secretin dissolved in 7.5 mL of normal saline (n=4), or saline alone (n=3). The remaining 15 subjects received 150 CU of secretin (n=7) or saline (n=8).

[4] = Week 1, single i.v. dose 75 or 150 CU, n=11, mean
[5] = Week 1 after single i.v. dose 75 or 150 CU, n=11, mean
[6] = Week 2, single i.v. dose 75 or 150 CU, n=11, mean
[7] = Week 2 after single i.v. dose 75 or 150 CU, n=11, mean
[8] = Week 3, single i.v. dose 75 or 150 CU, n=11, mean
[9] = Week 3 after single i.v. dose 75 or 150 CU, n=11, mean
[10] = Week 4, single i.v. dose 75 or 150 CU, n=11, mean
[11] = Week 4 after single i.v. dose 75 or 150 CU, n=11, mean
[12] = within the first week after infusion, of 11 secretin-treated patients

Question: For “SECREFLO: Secretin commercially available under the trademark SECREFLO from RepliGen Corporation (HSDGTFTSELSRLRDSARLQRLLQGLV-NH2; ends and bridges not checked; UniProt P63298 33-59, looked up)”, which “Potency per milligram of peptide” value [1] is on record?
Answer: approximately 5000 CU per milligram

Question: For Secretin, which “Patients with a clinically meaningful response” value ([2]; 75 CU single i.v. dose) is on record?
Answer: 1 of 4

Question: What about the “Patients with a clinically meaningful response” value ([2]; 150 CU single i.v. dose) of the same substance?
Answer: 2 of 7

Question: What about the CGI-I ([2]; Day 2 after single i.v. dose 75 or 150 CU, n=11, mean (SD)) of the same substance?
Answer: 3.5 (0.8)*

Question: And the “Group by time interaction for the CGI-Improvement (CGI-I) scale (repeated measures ANOVA, vs placebo)” value ([2]; F=0.69)?
Answer: no significant group by time interaction

Question: What about the “Group by time interaction for PANSS total, positive, negative and general psychopathology scores (repeated measures ANOVA, vs placebo)” value ([2]; F=1.72, 1.08, 0.6679, 0.41) of the same substance?
Answer: no significant group by time interactions

Question: What about the PANSS negative [2, 4] of the same substance?
Answer: 24.3

Question: And the PANSS positive [2, 4]?
Answer: 25

Question: And the PANSS general [2, 4]?
Answer: 45.8

Question: What about the CGI-I [2, 5] of the same substance?
Answer: 3.4*

Question: What about the PANSS total [2, 5] of the same substance?
Answer: 95.1

Question: What about the PANSS negative [2, 6] of the same substance?
Answer: 24.7

Question: What about the PANSS positive [2, 6] of the same substance?
Answer: 26.9

Question: What about the PANSS general [2, 6] of the same substance?
Answer: 49.2

Question: What about the CGI-I [2, 7] of the same substance?
Answer: 3.9

Question: What about the PANSS total [2, 7] of the same substance?
Answer: 100.8

Question: And the PANSS negative [2, 8]?
Answer: 24.9

Question: And the PANSS positive [2, 8]?
Answer: 27

Question: And the PANSS general [2, 8]?
Answer: 48.2

Question: What about the CGI-I [2, 9] of the same substance?
Answer: 3.8*

Question: And the PANSS total [2, 9]?
Answer: 100.1

Question: What about the PANSS negative [2, 10] of the same substance?
Answer: 24.5

Question: What about the PANSS positive [2, 10] of the same substance?
Answer: 26.7

Question: What about the PANSS general [2, 10] of the same substance?
Answer: 48.3

Question: What about the CGI-I [2, 11] of the same substance?
Answer: 3.9

Question: What about the PANSS total [2, 11] of the same substance?
Answer: 99.5

Question: And the “Time until reversion to usual behavior and level of function” value ([2]; patient of Example 1, 75 CU)?
Answer: four

Question: And the “Time to onset of clinical improvement (more interactive)” value ([2]; patient of Example 1, person, disorganized schizophrenia, 75 CU)?
Answer: ≤ 24 h

Question: And the “Time until return to baseline mental state” value ([2]; patient of Example 2, 150 CU)?
Answer: ≤ 12 h

Question: And the “Time to onset of clinical improvement (more alert, coherent speech)” value ([2]; patient of Example 2, person, disorganized schizophrenia, 150 CU)?
Answer: six

Question: What about the “Time after infusion at which improvement was seen (agreed to attend off ward activities)” value ([2]; patient of Example 3, person, paranoid schizophrenia, 150 CU) of the same substance?
Answer: 48 h

Question: What about the “CGI-I scale vs placebo, post-hoc exploratory Student's t-tests” value ([2]; two days after infusion (p=0.03), week 1 (p=0.009), week 3 (p=0.002)) of the same substance?
Answer: significant improvement

Question: What about the “Patients rated as minimally improved (qualitative grouping of CGI-I scores)” value [2, 12] of the same substance?
Answer: five

Question: What about the “Patients rated as much improved (qualitative grouping of CGI-I scores)” value [2, 12] of the same substance?
Answer: three

Question: What about the “Patients rated as unchanged (qualitative grouping of CGI-I scores)” value [2, 12] of the same substance?
Answer: two

Question: And the “Patients rated as worse (qualitative grouping of CGI-I scores)” value [2, 12]?
Answer: one

Question: What about the Allergic reactions [3] of the same substance?
Answer: no allergic reactions were observed

Question: What about the “Premature dropouts or serious adverse events during the trial” value [3] of the same substance?
Answer: no premature dropouts or serious adverse events

Question: What about the Side effects [3] of the same substance?
Answer: no side effects noted

Question: For “biologically derived porcine secretin: biologically derived porcine secretin, comparison for SECREFLO potency (HSDGTFTSELSRLRDSARLQRLLQGLV; ends and bridges not checked; UniProt P63298 33-59, looked up)”, which “Potency per milligram of peptide” value [1] is on record?
Answer: 3000 CU per milligram
